# According to ChEMBL document CHEMBL3885861, “Open TG-GATES”:
# Species on record: Rattus norvegicus
# Test: Open TG-GATES - Regimen: Daily Repeat
# Type: toxicity, organism-based, Sprague-Dawley
# Design: regimen Daily Repeat, gender Male, age 6 weeks
# Conditions: in vivo, po, route gavage; for APTT / Bas / Eos / Fbg / Hb / Ht / Lym / MCHC / MCV / Mono / Neu / PT / Plat / RBC / Ret / WBC: tissue Blood; for KIDNEY_L / KIDNEY_R / KIDNEY_TOTAL: tissue Kidney; for LIVER: tissue Liver; for ALP / ALT / AST / BUN / CRE / Ca / Cl / DBIL / GLC / IP / K / LDH / Na / PL / RALB / TBIL / TG / TP / gamma-GTP: tissue Plasma
# [1] = 300 mg/kg, 72 h, dose level Middle, time 3 day
# [2] = 300 mg/kg, […], dose level Middle, time 7 day
# [3] = 300 mg/kg, […], dose level Middle, time 14 day
# [4] = 300 mg/kg, […], dose level Middle, time 28 day
# [5] = 1000 mg/kg, 72 h, dose level High, time 3 day
# [6] = 1000 mg/kg, […], dose level High, time 7 day
# [7] = 1000 mg/kg, […], dose level High, time 14 day
# [8] = 1000 mg/kg, […], dose level High, time 28 day
compound,measurement,setting,value
CN(C)C(=N)N=C(N)N [METFORMIN],TERMINAL_BW,[1],223.9 g
same,APTT,[1],17.6 s
same,Bas,[1],0%
same,Eos,[1],1%
same,Fbg,[1],251.8 mg/dL
same,Hb,[1],13.2 g/dL
same,Ht,[1],39.3%
same,Lym,[1],78.2%
same,MCHC,[1],33.6%
same,MCV,[1],63.4 fL
same,Mono,[1],3.2%
same,Neu,[1],17.2%
same,PT,[1],12.7 s
same,Plat,[1],115.7 x10_4/uL
same,RBC,[1],621.4 x10_4/ul
same,Ret,[1],7.1%
same,WBC,[1],94 x10_2/uL
same,KIDNEY_L,[1],1 g
same,KIDNEY_R,[1],1 g
same,KIDNEY_TOTAL,[1],2 g
same,LIVER,[1],11.3 g
same,ALP,[1],1558.4 IU/L
same,ALT,[1],52.2 IU/L
same,AST,[1],78.4 IU/L
same,BUN,[1],15.8 mg/dL
same,CRE,[1],0.2 mg/dL
same,Ca,[1],11.1 mg/dL
same,Cl,[1],104.8 meq/L
same,DBIL,[1],0.016 mg/dL
same,GLC,[1],193.2 mg/dL
same,IP,[1],8.3 mg/dL
same,K,[1],3.9 meq/L
same,LDH,[1],62.2 IU/L
same,Na,[1],141.6 meq/L
same,PL,[1],140.8 mg/dL
same,RALB,[1],2.6 g/dL
same,TBIL,[1],0.038 mg/dL
same,TG,[1],68.2 mg/dL
same,TP,[1],5.6 g/dL
same,gamma-GTP,[1],1 IU/L
same,TERMINAL_BW,[2],256.3 g
same,TERMINAL_BW,[3],308.9 g
same,TERMINAL_BW,[4],387.2 g
same,APTT,[2],16 s
same,Bas,[2],0%
same,Eos,[2],1%
same,Fbg,[2],279.8 mg/dL
same,Hb,[2],13.8 g/dL
same,Ht,[2],41%
same,Lym,[2],77.6%
same,MCHC,[2],33.7%
same,MCV,[2],62.5 fL
same,Mono,[2],3.6%
same,Neu,[2],17.4%
same,PT,[2],12 s
same,Plat,[2],126.1 x10_4/uL
same,RBC,[2],656.2 x10_4/ul
same,Ret,[2],5.6%
same,WBC,[2],77.5 x10_2/uL
same,APTT,[3],17.2 s
same,Bas,[3],0.2%
same,Eos,[3],1.2%
same,Fbg,[3],248.8 mg/dL
same,Hb,[3],14.3 g/dL
same,Ht,[3],41.6%
same,Lym,[3],78.6%
same,MCHC,[3],34.4%
same,MCV,[3],60.4 fL
same,Mono,[3],2.6%
same,Neu,[3],17%
same,PT,[3],12.2 s
same,Plat,[3],116.5 x10_4/uL
same,RBC,[3],690.4 x10_4/ul
same,Ret,[3],4.6%
same,WBC,[3],107 x10_2/uL
same,APTT,[4],19.8 s
same,Bas,[4],0.2%
same,Eos,[4],1%
same,Fbg,[4],261.8 mg/dL
same,Hb,[4],15.3 g/dL
same,Ht,[4],44.3%
same,Lym,[4],79.4%
same,MCHC,[4],34.5%
same,MCV,[4],57 fL
same,Mono,[4],2.6%
same,Neu,[4],16.2%
same,PT,[4],12.2 s
same,Plat,[4],100.1 x10_4/uL
same,RBC,[4],777.2 x10_4/ul
same,Ret,[4],2.5%
same,WBC,[4],112.9 x10_2/uL
same,KIDNEY_L,[2],1 g
same,KIDNEY_R,[2],1 g
same,KIDNEY_TOTAL,[2],2.1 g
same,KIDNEY_L,[3],1.2 g
same,KIDNEY_R,[3],1.2 g
same,KIDNEY_TOTAL,[3],2.4 g
same,KIDNEY_L,[4],1.4 g
same,KIDNEY_R,[4],1.4 g
same,KIDNEY_TOTAL,[4],2.9 g
same,LIVER,[2],12.7 g
same,LIVER,[3],14 g
same,LIVER,[4],16.4 g
same,ALP,[2],1101.6 IU/L
same,ALT,[2],61 IU/L
same,AST,[2],83.2 IU/L
same,BUN,[2],15.6 mg/dL
same,CRE,[2],0.2 mg/dL
same,Ca,[2],10.8 mg/dL
same,Cl,[2],106.2 meq/L
same,DBIL,[2],0.014 mg/dL
same,GLC,[2],182.8 mg/dL
same,IP,[2],8.2 mg/dL
same,K,[2],4.6 meq/L
same,LDH,[2],102.8 IU/L
same,Na,[2],141.8 meq/L
same,PL,[2],144.4 mg/dL
same,RALB,[2],2.7 g/dL
same,TBIL,[2],0.028 mg/dL
same,TG,[2],119.6 mg/dL
same,TP,[2],5.7 g/dL
same,gamma-GTP,[2],0.8 IU/L
same,ALP,[3],1291.2 IU/L
same,ALT,[3],50.4 IU/L
same,AST,[3],73 IU/L
same,BUN,[3],16.4 mg/dL
same,CRE,[3],0.2 mg/dL
same,Ca,[3],10.9 mg/dL
same,Cl,[3],104.8 meq/L
same,DBIL,[3],0.016 mg/dL
same,GLC,[3],190.4 mg/dL
same,IP,[3],7.1 mg/dL
same,K,[3],3.8 meq/L
same,LDH,[3],72.2 IU/L
same,Na,[3],142.4 meq/L
same,PL,[3],157.6 mg/dL
same,RALB,[3],2.7 g/dL
same,TBIL,[3],0.032 mg/dL
same,TG,[3],134.4 mg/dL
same,TP,[3],5.9 g/dL
same,gamma-GTP,[3],1 IU/L
same,ALP,[4],1096.8 IU/L
same,ALT,[4],47.2 IU/L
same,AST,[4],68.8 IU/L
same,BUN,[4],15.6 mg/dL
same,CRE,[4],0.2 mg/dL
same,Ca,[4],11.1 mg/dL
same,Cl,[4],105.6 meq/L
same,DBIL,[4],0.016 mg/dL
same,GLC,[4],187.6 mg/dL
same,IP,[4],6.8 mg/dL
same,K,[4],3.8 meq/L
same,LDH,[4],52 IU/L
same,Na,[4],145.4 meq/L
same,PL,[4],150.4 mg/dL
same,RALB,[4],2.8 g/dL
same,TBIL,[4],0.036 mg/dL
same,TG,[4],158.2 mg/dL
same,TP,[4],6.2 g/dL
same,gamma-GTP,[4],1 IU/L
same,TERMINAL_BW,[5],213.8 g
same,APTT,[5],17.6 s
same,Bas,[5],0%
same,Eos,[5],1%
same,Fbg,[5],223.8 mg/dL
same,Hb,[5],13.4 g/dL
same,Ht,[5],39.4%
same,Lym,[5],72.8%
same,MCHC,[5],34.1%
same,MCV,[5],63.1 fL
same,Mono,[5],4%
same,Neu,[5],22%
same,PT,[5],12.4 s
same,Plat,[5],121.1 x10_4/uL
same,RBC,[5],624.8 x10_4/ul
same,Ret,[5],5.5%
same,WBC,[5],107 x10_2/uL
same,KIDNEY_L,[5],0.9 g
same,KIDNEY_R,[5],0.9 g
same,KIDNEY_TOTAL,[5],1.8 g
same,LIVER,[5],11.6 g
same,ALP,[5],1276.4 IU/L
same,ALT,[5],37.4 IU/L
same,AST,[5],74 IU/L
same,BUN,[5],16.6 mg/dL
same,CRE,[5],0.2 mg/dL
same,Ca,[5],11.1 mg/dL
same,Cl,[5],104 meq/L
same,DBIL,[5],0.012 mg/dL
same,GLC,[5],180.2 mg/dL
same,IP,[5],8.7 mg/dL
same,K,[5],4.1 meq/L
same,LDH,[5],63.4 IU/L
same,Na,[5],140.2 meq/L
same,PL,[5],137.8 mg/dL
same,RALB,[5],2.5 g/dL
same,TBIL,[5],0.032 mg/dL
same,TG,[5],95.8 mg/dL
same,TP,[5],5.4 g/dL
same,gamma-GTP,[5],1.2 IU/L
same,TERMINAL_BW,[6],243 g
same,TERMINAL_BW,[7],288.9 g
same,TERMINAL_BW,[8],357 g
same,APTT,[6],15.3 s
same,Bas,[6],0.2%
same,Eos,[6],0.6%
same,Fbg,[6],254.8 mg/dL
same,Hb,[6],13.8 g/dL
same,Ht,[6],41%
same,Lym,[6],80.4%
same,MCHC,[6],33.7%
same,MCV,[6],61.8 fL
same,Mono,[6],3.2%
same,Neu,[6],15.2%
same,PT,[6],12.1 s
same,Plat,[6],116.4 x10_4/uL
same,RBC,[6],664 x10_4/ul
same,Ret,[6],5.5%
same,WBC,[6],101.5 x10_2/uL
same,APTT,[7],17 s
same,Bas,[7],0%
same,Eos,[7],0.8%
same,Fbg,[7],252.2 mg/dL
same,Hb,[7],14.4 g/dL
same,Ht,[7],41.7%
same,Lym,[7],75.4%
same,MCHC,[7],34.5%
same,MCV,[7],59.5 fL
same,Mono,[7],3.4%
same,Neu,[7],19.6%
same,PT,[7],12.2 s
same,Plat,[7],124 x10_4/uL
same,RBC,[7],702 x10_4/ul
same,Ret,[7],4.4%
same,WBC,[7],121.9 x10_2/uL
same,APTT,[8],17.8 s
same,Bas,[8],0%
same,Eos,[8],1.2%
same,Fbg,[8],258.6 mg/dL
same,Hb,[8],15 g/dL
same,Ht,[8],43.7%
same,Lym,[8],74.6%
same,MCHC,[8],34.3%
same,MCV,[8],57.7 fL
same,Mono,[8],3.2%
same,Neu,[8],20.6%
same,PT,[8],12 s
same,Plat,[8],105.5 x10_4/uL
same,RBC,[8],757.4 x10_4/ul
same,Ret,[8],2.6%
same,WBC,[8],108.4 x10_2/uL
same,KIDNEY_L,[6],1.1 g
same,KIDNEY_R,[6],1 g
same,KIDNEY_TOTAL,[6],2.1 g
same,KIDNEY_L,[7],1.2 g
same,KIDNEY_R,[7],1.1 g
same,KIDNEY_TOTAL,[7],2.3 g
same,KIDNEY_L,[8],1.4 g
same,KIDNEY_R,[8],1.4 g
same,KIDNEY_TOTAL,[8],2.8 g
same,LIVER,[6],12.1 g
same,LIVER,[7],14.4 g
same,LIVER,[8],16.5 g
same,ALP,[6],1316.4 IU/L
same,ALT,[6],44.4 IU/L
same,AST,[6],82.2 IU/L
same,BUN,[6],15 mg/dL
same,CRE,[6],0.2 mg/dL
same,Ca,[6],10.9 mg/dL
same,Cl,[6],104.2 meq/L
same,DBIL,[6],0.012 mg/dL
same,GLC,[6],193.2 mg/dL
same,IP,[6],8.4 mg/dL
same,K,[6],4.4 meq/L
same,LDH,[6],57.4 IU/L
same,Na,[6],140.8 meq/L
same,PL,[6],141.6 mg/dL
same,RALB,[6],2.6 g/dL
same,TBIL,[6],0.024 mg/dL
same,TG,[6],92.2 mg/dL
same,TP,[6],5.5 g/dL
same,gamma-GTP,[6],1 IU/L
same,ALP,[7],1249.8 IU/L
same,ALT,[7],39 IU/L
same,AST,[7],75 IU/L
same,BUN,[7],17.6 mg/dL
same,CRE,[7],0.2 mg/dL
same,Ca,[7],11 mg/dL
same,Cl,[7],103.6 meq/L
same,DBIL,[7],0.008 mg/dL
same,GLC,[7],188.6 mg/dL
same,IP,[7],6.9 mg/dL
same,K,[7],4.1 meq/L
same,LDH,[7],61.2 IU/L
same,Na,[7],141.4 meq/L
same,PL,[7],164 mg/dL
same,RALB,[7],2.8 g/dL
same,TBIL,[7],0.026 mg/dL
same,TG,[7],148.6 mg/dL
same,TP,[7],6 g/dL
same,gamma-GTP,[7],1.2 IU/L
same,ALP,[8],1090.4 IU/L
same,ALT,[8],41.6 IU/L
same,AST,[8],71.4 IU/L
same,BUN,[8],17.4 mg/dL
same,CRE,[8],0.2 mg/dL
same,Ca,[8],11.1 mg/dL
same,Cl,[8],104 meq/L
same,DBIL,[8],0.014 mg/dL
same,GLC,[8],194.2 mg/dL
same,IP,[8],6.7 mg/dL
same,K,[8],3.9 meq/L
same,LDH,[8],50.2 IU/L
same,Na,[8],145.2 meq/L
same,PL,[8],152.6 mg/dL
same,RALB,[8],2.7 g/dL
same,TBIL,[8],0.034 mg/dL
same,TG,[8],148 mg/dL
same,TP,[8],6 g/dL
same,gamma-GTP,[8],1 IU/L
